From US7517902B2, “Substituted indazoles, compositions containing the same, and the preparation and use thereof” (Aventis Pharma S.A., priority 2004, dated 2009)

Target: T1, CDK4/cyclin D1 kinase complex (Homo sapiens, UniProt P11802)
T1 construct: HA (Hemagglutinin tag) (C); made in house; host or cells: Sf9 insect cells (baculovirus co-infection)
Test: CDK4/cyclinD1 Flashplate assay in 96-well format
Assay type: biochemical
Settings: read-out: IC 50 CDK4
Description: Purification of the CDK4-HA/cyclin D1-(His)6 complex by IMAC (Immobilized Metal Affinity Chromatography):
Two recombinant baculoviruses carrying the human sequences coding respectively for CDK4-HA (C-terminal fusion with the Hemagglutinin tag) and for cyclin D1-(His)6 are used to co-infect Sf9 insect cells. Sixty hours after the beginning of co-infection, the cells are harvested by centrifugation and then frozen at −20° C. until their use. After thawing in buffer A (HEPES 200 mM pH 7.0, NaCl 50 mM, MgCl2 2 mM, imidazole 25 mM, TCEP 1 mM, glycerol 10% (w/v), NaF 1 mM, Na3VO4 1 mM), stirring at 4° C. for 1 h, and centrifugation, the complex present in the lysis supernatant is purified by affinity chromatography on nickel (IMAC) and stored at −80° C.
CDK4/cyclinD1 Flashplate Assay in 96-Well Format.
An assay in 96-well “Flashplate” (scintillation plate) plates coated with streptavidin is used to evaluate the inhibition of the CDK4/cyclin D1 kinase complex by the products of the invention. To perform this test, the biotinylated peptide substrate, a fragment of the pRb protein, (biotinyl-[…]-amide), is dissolved at a concentration of 2 mM in kinase buffer (HEPES/NaOH 50 mM, NaCl 1 mM, MgCl2 5 mM, pH=7.5) to form a stock solution, which is stored at −20° C. in the form of 110 μl aliquots. On the day of the experiment, an aliquot of this solution is thawed and diluted in kinase buffer containing 1 mM of dithiothreitol, added at the time of use, so as to give a final peptide concentration of 2.571 μM. seventy μl of this solution are deposited in each well of the Flashplate plate, to give a final substrate concentration of 1.8 μM during the enzymatic reaction, which is performed in a final volume of 100 μl (cf. below). Intermediate dilutions of inhibitors (products of the invention) at various concentrations are prepared in DMSO from 10 mM stock solutions in separate tubes. In this way dilutions at 1000 μM, 333.3 μM, 111.1 μM, 37.03 μM, 12.35 μM, 4.11 μM and 1.37 μM are produced. One μl of each of these solutions (or 1 μl of DMSO for the controls) is subsequently transferred into the wells of the assay plate. To each well there is subsequently added 19 μl of a solution of a mixture of adenosine triphosphate (ATP) and ATPγ^33P in the kinase buffer at a concentration of 5.26 μM of total ATP and 78.9 μCi/ml of ^33P. The enzymatic reaction is triggered by adding 10 μl per well of a solution of CDK4/cyclin D1 complex at 250 nM in the kinase buffer, containing 1 mM of dithiothreitol (or 10 μl of kinase buffer containing 1 mM of dithiothreitol for the reaction blanks). At the end of the various additions, the final volume in each well is 100 μl, the final substrate concentration is 1.8 μM, the final inhibitor concentrations are 10 μM, 3.33 μM, 1.11 μM, 0.37 μM, 0.123 μM, 0.041 μM and 0.014 μM (depending on the concentration of the intermediate dilution), the final ATP concentration is 1 μM, the final amount of ^33P is 1.5 μCi/well, and the final concentration of CDK4/cyclin D1 complex is 25 nM.
After all of the reagents have been added, the assay plate is incubated at 30° C. with orbital stirring at 650 rpm. Following incubation, the plate is washed three times with 300 μl per well of PBS buffer (phosphate buffered saline, pH=7.4 with neither calcium nor magnesium, reference 10010-015, Gibco BRL). The incorporation of ^33P into the substrate peptide is measured by scintillation counting using a Packard Topcount.NXT instrument. The inhibitory activity of the products of the invention is evaluated by determining the concentration of inhibitor resulting in a 50% reduction in the enzymatic activity (IC50).

T1 sequence (P11802 whole entry): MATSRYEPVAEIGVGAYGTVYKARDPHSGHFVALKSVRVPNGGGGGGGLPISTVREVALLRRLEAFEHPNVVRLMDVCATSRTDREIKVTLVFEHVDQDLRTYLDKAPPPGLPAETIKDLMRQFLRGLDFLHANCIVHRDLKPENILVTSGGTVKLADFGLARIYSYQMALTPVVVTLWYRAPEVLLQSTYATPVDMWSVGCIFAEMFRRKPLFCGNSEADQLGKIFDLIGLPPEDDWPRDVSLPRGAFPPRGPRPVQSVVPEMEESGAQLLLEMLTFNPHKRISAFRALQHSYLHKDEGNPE
T1 sequence (P24385 whole entry partner): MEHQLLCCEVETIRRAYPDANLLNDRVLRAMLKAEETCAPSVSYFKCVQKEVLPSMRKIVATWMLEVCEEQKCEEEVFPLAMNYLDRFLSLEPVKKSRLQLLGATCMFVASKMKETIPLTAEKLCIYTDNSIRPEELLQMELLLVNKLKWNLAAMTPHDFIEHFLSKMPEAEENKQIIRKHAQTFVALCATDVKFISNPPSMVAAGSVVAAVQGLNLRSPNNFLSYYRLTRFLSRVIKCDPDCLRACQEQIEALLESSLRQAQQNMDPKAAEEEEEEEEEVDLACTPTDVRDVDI

| Compound | IC50 |
| --- | --- |
| O=C(Nc1n[nH]c2c(F)c(-c3ccc(NS(=O)(=O)c4ccccc4)cc3)ccc12)c1ccsc1 [Example 32, Thiophene-3-carboxylic acid[6-(4-benzene-sulfonylamino-phenyl)-7-fluoro-1H-indazol-3-yl]-amide] | 747 nM |
| CC(=O)Nc1ccc(S(=O)(=O)Nc2ccc(-c3ccc4c(NC(=O)c5ccsc5)n[nH]c4c3F)cc2)cc1 [Example 33, Thiophene-3-carboxylic acid{6-[4-(4-acetyl-aminobenzene-sulfonylamino)-phenyl]-7-fluoro-1H-indazol-3-yl}-amide] | 1210 nM |
| CS(=O)(=O)Nc1ccc(-c2ccc3c(NC(=O)c4ccsc4)n[nH]c3c2F)cc1 [Example 34, Thiophene-3-carboxylic acid[7-fluoro-6-(4-methanesulfonyl-aminophenyl)-1H-indazol-3-yl]-amide] | 2090 nM |
| O=C(Nc1n[nH]c2c(F)c(-c3ccc(NS(=O)(=O)C4CC4)cc3)ccc12)c1ccsc1 [Example 36, Thiophene-3-carboxylic acid{6-[4-cyclo-propanesulfonyl-aminophenyl)-7-fluoro-1H-indazol-3-yl}-amide] | 3600 nM |
| Cn1cnc(S(=O)(=O)Nc2ccc(-c3ccc4c(NC(=O)c5ccsc5)n[nH]c4c3F)cc2)c1 [Example 39, Thiophene-3-carboxylic acid{7-fluoro-6[4-(1-methyl-1H-imidazole-4-sulfonylamino)-phenyl]-1H-indazol-3-yl}-amide] | 3650 nM |

More lines, now with the values ahead:

| IC50 | Compound |
| --- | --- |
| 490 nM | O=C(Nc1n[nH]c2c(F)c(-c3ccc(NS(=O)(=O)c4cccc5ccccc45)cc3)ccc12)c1ccsc1 [Example 30, Thiophene-3-carboxylic acid{7-fluoro-6-[4-(naphthalene-1-sulfonylamino)-phenyl]-1H-indazol-3-yl}-amide] |
| 730 nM | O=C(Nc1n[nH]c2c(F)c(-c3ccc(NS(=O)(=O)c4cccs4)cc3)ccc12)c1ccsc1 [Example 31, Thiophene-3-carboxylic acid{7-fluoro-6-[4-(thiophene-2-sulfonylamino)-phenyl]-1H-indazol-3-yl}-amide] |
| 51 nM | O=C(Nc1n[nH]c2c(F)c(-c3ccc(NS(=O)(=O)c4ccccc4Cl)cc3)ccc12)c1ccsc1 [Example 37, Thiophene-3-carboxylic acid{6-[4-(2-chloro-benzenesulfonyl-amino)phenyl]-7-fluoro-1H-indazol-3-yl}-amide] |
| 419 nM | O=C(Nc1n[nH]c2c(F)c(-c3ccc(NS(=O)(=O)c4cccc(Cl)c4)cc3)ccc12)c1ccsc1 [Example 38, Thiophene-3-carboxylic acid{6-[4-(3-chloro-benzenesulfonyl-amino)phenyl]-7-fluoro-1H-indazol-3-yl}-amide] |
